For the first data set the following is noted: acidic group.
For the molecule `C[n+]1cccc2cccc(O)c21`, the pKa (usually the pH at which an ionisable group is half protonated) worked out at 6.81. Same read-out and setting: in the case of `C[NH+](C)CCc1cccc(O)c1` it was 9.24; in that of `Cc1cc(/N=N/c2ccc(S([NH-])(=O)=O)cc2)cc(C(=O)[O-])c1O`, 12.1. Regarding `CCCCc1c(C)nn(-c2ccccc2)c1O`, the pKa was determined as 11.4. The same measure, in the same setting: in the case of `NC(=O)CS` it was 8.22; in that of `Cc1ccccc1C(=O)O`, 3.92; in that of `O=C([O-])[C@@H](NCC[NH2+][C@@H](C(=O)[O-])c1ccccc1[O-])c1ccccc1O`, 10.8. In turn, `O=C(O)c1ccc(CO)cc1` came in with a pKa of 4.18. On the same count and under the same terms, the value for `O=[PH](O)C([NH2+]Cc1cc[nH+]cc1)c1ccccc1O` (stereo unspecified) was 2.35; that for `O=C(O)[C@H]1C[C@@H]1c1cccc([N+](=O)[O-])c1` was 4.41; that for `C[N+]1(CC(=O)O)CCCCC1` was 2.01. Same read-out and setting: the value for `Cc1cc(=O)n2ncnc2[nH]1` was 6.19; that for `CCC[Si](C)(CCC)CC(=O)O` was 5.65. Regarding `[NH3+]CCCCCC#CC#CCCC(=O)O`, the pKa worked out at 4.17.

With `O=C(O)c1cc(=O)cc(-c2ccccc2)o1`, the pKa stood at 1.51. The same measure, in the same setting: the value for `Sc1cccc[nH+]1` was -1.22; that for `CC(=O)CC(=O)CC(C)C` was 9.07; that for `Cc1ccc(OCC(=O)O)cc1` was 3.15. In turn, `Cc1cc(=O)oc2cc(O)ccc12` gave a pKa of 7.8.

`c1ccc(-c2cn[nH]c2)cc1`: the pKa amounted to 13.6. Same read-out and setting: in the case of `CC(=O)NC(CS)C(=O)O` (stereo unspecified) it was 3.08.

Consider `Oc1cccc(I)c1`, for which the pKa worked out at 9.02. Still for that read-out and setting: the value for `Oc1nc2ccccc2c[nH+]1` was 1.3. The same measure, in the same setting: the value for `CCCCCCCC(=O)NO` was 9.19. Still for that read-out and setting: in the case of `Cc1[nH]c(C(=O)[O-])c(C(=O)O)[nH+]1` it was 4.54. In turn, `Nc1nc2nc[n-]c2c(N)[n+]1[O-]` had a pKa of 12.

`CC(=O)OCC(=N/O)/C(C)=N/O` yielded a pKa of 9.7. On the same count and under the same terms, in the case of `C[n+]1cc(O)c2ccccc2c1` it was 4.93; in that of `O=C(O)c1ccc([N+](=O)[O-])o1`, 2.06. Same read-out and setting: the value for `CC(=O)c1cccc(O)c1` was 9.12; that for `[NH3+]Cc1ccc(F)c(O)c1` was 8; that for `Fc1ccc(NC=S)cc1` was 11.2. Take `Sc1cccc2ncccc12`: the pKa stood at 6.48. For the molecule `CC(=S)Nc1ccccc1`, the pKa was found to be 11.6. The same measure, in the same setting: in the case of `COc1cc2ccc(=O)oc2cc1O` it was 6.5.

Still in this data set, the particulars now being: basic group.
Regarding `Cn1ccnc1-c1nccn1C`, the pKa turned out to be 4.91.

Molecule `CNc1ccc(C)cc1` returned a pKa of 5.36. The same measure, in the same setting: in the case of `CCCCCCCCCCCCCCCCCCN` it was 10.6; in that of `[O-]c1ccncc1Br`, 9.4; in that of `O=Cc1ccncc1`, 4.63. The same measure, in the same setting: in the case of `NC1(C(=O)[O-])CCCC1` it was 10.1; in that of `c1ccc(-c2cc3c(-c4ccccc4)ccnc3c3ncccc23)cc1`, 4.69. Still for that read-out and setting: in the case of `O=C(CN1CCCCC1)NCc1ccccc1` it was 7.71; in that of `Cc1cc(C)nc(N)n1`, 4.93; in that of `CCNc1ccccc1C`, 4.92. For `C[NH+](C)CCCCNc1c2ccccc2nc2cccc([N+](=O)[O-])c12`, the pKa was 6.9.

For the molecule `[NH3+]CCc1cccnc1`, the pKa was determined as 4.64. Still for that read-out and setting: in the case of `O=[N+]([O-])c1ccc2cn[nH]c2c1` it was 0.66; in that of `C=CC(=O)NC(C)(C)CCN(CC)CC`, 10.1; in that of `CCCCSC1=NCCN1`, 9. On the same count and under the same terms, in the case of `c1ccc2c(c1)CNCCC[NH2+]Cc1ccccc1OCCCO2` it was 7.89; in that of `CCN(CC)CC(=O)Nc1cc(C)cc(C)c1`, 8.01.

Molecule `CN1CCCC(C(=O)[O-])C1` (stereo unspecified) registered a pKa of 9.7. In the case of `COc1cc([N+](=O)[O-])cc(C(=O)N[C@@H]2C[C@H]3CC[C@@H](C2)N3Cc2ccccc2)c1OC`, the pKa was 8.7.

In the case of `CC(C)SC(=N)c1ccccc1`, the pKa was determined as 8.04. For the molecule `c1ccc(Nc2ccccc2)cc1`, the pKa came out at 0.76.
